IC50 data for 2 compounds are collected here from BindingDB's records for patent US20230391748 (Rigel Pharmaceuticals, 2023).

Structures are written as SMILES.

By IC50 is commonly meant the point on the concentration scale where inhibition reaches its midpoint. Lower therefore signals greater potency in that assay.

The experiment deals with T1, Interleukin-1 receptor-associated kinase 4 (Homo sapiens, UniProt Q9NWZ3).
T1 sequence (Q9NWZ3 whole entry): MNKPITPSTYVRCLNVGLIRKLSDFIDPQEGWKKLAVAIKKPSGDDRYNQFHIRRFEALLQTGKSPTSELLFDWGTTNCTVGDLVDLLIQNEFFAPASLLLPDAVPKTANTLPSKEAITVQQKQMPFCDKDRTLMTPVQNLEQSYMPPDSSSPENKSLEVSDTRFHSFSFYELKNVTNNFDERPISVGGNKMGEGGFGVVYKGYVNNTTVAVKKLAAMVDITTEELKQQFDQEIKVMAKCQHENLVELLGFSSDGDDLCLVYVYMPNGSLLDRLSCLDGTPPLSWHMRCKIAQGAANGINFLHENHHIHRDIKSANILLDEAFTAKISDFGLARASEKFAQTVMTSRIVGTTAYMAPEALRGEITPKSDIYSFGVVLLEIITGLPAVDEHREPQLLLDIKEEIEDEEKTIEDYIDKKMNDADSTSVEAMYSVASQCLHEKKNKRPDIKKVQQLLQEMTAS
In words: IRAK4 ADP-Glo Assay. As to the method:
The ADP-Glo reagents were thawed at ambient temperature. The Kinase Detection Reagent was prepared by mixing kinase detection buffer with the lyophilized kinase detection substrate, and set aside.A stock volume of 5 Reaction Kinase Buffer was made with a final concentration of 100 mM MgCl2, 200 mM Tris-HCl, and 0.5 mg/ml of BSA, in distilled H2O with a final pH7.4. A 2 working stock volume of Reaction Kinase Buffer was made containing a final concentration of 100 μM DTT.The components of IRAK4 Enzyme were thawed on ice. Diluted IRAK4 in 1 Kinase Reaction Buffer (diluted from 2 buffer) was prepared at 5.0 ng/μl. […] Then diluted 1:5 in 2 Reaction Buffer in a 96 well plate. 1.0 μl was transferred to a 384 well plate in duplicate. […] 1 μl of 1 mg/ml stock solution of MBP substrate was added NOTE: MBP can be combined with ATP mix with equal volume and then added at 2 μl/well. Final reaction volume was 5 μl.The plate was centrifuged and the reaction mixture was incubated at room temperature for 60 minutes or at 30 C. for 30 minutes.The reaction was terminated and the remaining ATP was depleted by adding 5 μl of ADP-Glo Reagent. The 384-well plate was centrifuged and then the reaction mixture was incubated for another 40 minutes at ambient temperature.
(In general: ADP-Glo first removes unused ATP, then detects ADP through luciferase.)

Compound `CC(C)Oc1cc2c(O[C@@H]3CCCNC3)ncc(C#CC3(O)CCCC3)c2cc1C(N)=O` [US20230391748, Compound I-85] displayed a half-maximal inhibitory concentration (IC50) of 35 nM.

`CC(C)Oc1cc2c(OC[C@@H]3CC(F)(F)C(=O)N3)ncc(C#CC3(O)CCN(C(=O)OC(C)(C)C)CC3)c2cc1C(N)=O` [US20230391748, Compound I-52]: inhibition was half-maximal at 18.3 nM (IC50). Against the preceding compound, the IC50 is about 1.9-fold lower.
